Measurements taken from ChEMBL document CHEMBL1137894, “3-Thio-quinolinone maxi-K openers for the treatment of erectile dysfunction” (2004).

How the values were obtained:
[1] = test system: Oocyte; assay: Percentage opening of human Maxi-K channel in transfected oocyte cells at 20 uM; assay type: cell-based
[2] = species on record: Oryctolagus cuniculus; assay: Percentage relaxation of phenylephrine-contracted rabbit corpus cavernosum tissue strips at concentration of 10 uM; assay type: functional
[3] = test system: Oocyte; assay: Percentage opening of human Maxi-K channel in transfected oocyte cells at 10 uM; assay type: cell-based
[4] = test system: Oocyte; assay: Percentage opening of human Maxi-K channel in transfected oocyte cells at 5 uM; assay type: cell-based

SMILES	Activity [1]	Relaxation [2]	Activity [3]	Activity [4]
O=C(CSc1c(O)nc2ccc(C(F)(F)F)cc2c1-c1cc(Cl)ccc1O)N1CCN(CCOCCO)CC1	205%	17%	–	–
COc1ccc(Cl)cc1-c1c(SCC(O)CN2CCN(C(C)=O)CC2)c(O)nc2ccc(C(F)(F)F)cc12 (stereo not drawn)	192%	–	–	–
Oc1ccc(Cl)cc1-c1c(SCC(O)CN2CCOCC2)c(O)nc2ccc(C(F)(F)F)cc12 (stereo not drawn)	292%	49%	–	–
O=c1[nH]c2ccc(C(F)(F)F)cc2c(-c2cc(Cl)ccc2O)c1CCO [BMS-223131]	378%	83.7%	–	–
O=C(CCN1CCOCC1)Nc1ccc(Sc2c(O)nc3ccc(C(F)(F)F)cc3c2-c2cc(Cl)ccc2O)cc1	453%	22%	–	–
CN1CCN(C(=O)CSc2c(O)nc3ccc(C(F)(F)F)cc3c2-c2cc(Cl)ccc2O)CC1	422%	14%	–	–
CCS(=O)(=O)Nc1ccc(Sc2c(O)nc3ccc(C(F)(F)F)cc3c2-c2cc(Cl)ccc2O)cc1	–	–	296%	–
O=C(CCCN1CCCC1)Nc1ccc(Sc2c(O)nc3ccc(C(F)(F)F)cc3c2-c2cc(Cl)ccc2O)cc1	280%	36%	–	–
CN(C)C1CCN(CC(=O)Nc2ccc(Sc3c(O)nc4ccc(C(F)(F)F)cc4c3-c3cc(Cl)ccc3O)cc2)CC1	292%	19%	–	–
O=C(CCN1CCC(N2CCCCC2)CC1)Nc1ccc(Sc2c(O)nc3ccc(C(F)(F)F)cc3c2-c2cc(Cl)ccc2O)cc1	255%	23%	–	–
O=C(CN1CCC(N2CCCCC2)CC1)Nc1ccc(Sc2c(O)nc3ccc(C(F)(F)F)cc3c2-c2cc(Cl)ccc2O)cc1	283%	45%	–	–
O=S(=O)(CCCN1CCOCC1)Nc1ccc(Sc2c(O)nc3ccc(C(F)(F)F)cc3c2-c2cc(Cl)ccc2O)cc1	354%	35%	–	–
CN(C)C1CCN(C(=O)CSc2c(O)nc3ccc(C(F)(F)F)cc3c2-c2cc(Cl)ccc2O)CC1	286%	35%	–	–
O=C(CCCN1CCC(N2CCCCC2)CC1)Nc1ccc(Sc2c(O)nc3ccc(C(F)(F)F)cc3c2-c2cc(Cl)ccc2O)cc1	268%	28%	–	–
O=C(CCCN1CCN(c2ccccn2)CC1)Nc1ccc(Sc2c(O)nc3ccc(C(F)(F)F)cc3c2-c2cc(Cl)ccc2O)cc1	–	37%	197%	–
O=C(CN1CCOCC1)Nc1ccc(Sc2c(O)nc3ccc(C(F)(F)F)cc3c2-c2cc(Cl)ccc2O)cc1	–	34%	296%	–
CC(=O)N1CCN(CCCC(=O)CSc2c(O)nc3ccc(C(F)(F)F)cc3c2-c2cc(Cl)ccc2O)CC1	284%	–	–	–
O=C(CCN1CCN(c2ccccn2)CC1)Nc1ccc(Sc2c(O)nc3ccc(C(F)(F)F)cc3c2-c2cc(Cl)ccc2O)cc1	–	37%	169%	–
CN1CCN(CC(=O)Nc2ccc(Sc3c(O)nc4ccc(C(F)(F)F)cc4c3-c3cc(Cl)ccc3O)cc2)CC1	246%	19%	–	–

SMILES	Activity [1]	Relaxation [2]	Activity [3]	Activity [4]
CN(CCCN1CCN(C)CC1)CCC(O)CSc1c(O)nc2ccc(C(F)(F)F)cc2c1-c1cc(Cl)ccc1O (stereo not drawn)	515%	–	–	–
COc1ccc(Cl)cc1-c1c(SCC(O)CN2CCN(c3ncccn3)CC2)c(O)nc2ccc(C(F)(F)F)cc12 (stereo not drawn)	–	–	–	80%
O=S(=O)(CC(F)(F)F)Nc1ccc(Sc2c(O)nc3ccc(C(F)(F)F)cc3c2-c2cc(Cl)ccc2O)cc1	170%	–	–	–
CN(C)CCN1CCN(CC(O)CSc2c(O)nc3ccc(C(F)(F)F)cc3c2-c2cc(Cl)ccc2O)CC1 (stereo not drawn)	113%	–	–	–
O=C(CCN1CCCCC1)CSc1c(O)nc2ccc(C(F)(F)F)cc2c1-c1cc(Cl)ccc1O	199%	–	–	–
CN1CCN(CCC(=O)Nc2ccc(Sc3c(O)nc4ccc(C(F)(F)F)cc4c3-c3cc(Cl)ccc3O)cc2)CC1	474%	30%	–	–
O=C(CN1CCN(c2ccccn2)CC1)Nc1ccc(Sc2c(O)nc3ccc(C(F)(F)F)cc3c2-c2cc(Cl)ccc2O)cc1	–	17%	–	116%
CC1CCN(CCCC(=O)CSc2c(O)nc3ccc(C(F)(F)F)cc3c2-c2cc(Cl)ccc2O)CC1	213%	–	–	–
O=C(CCN1CCCC1)CSc1c(O)nc2ccc(C(F)(F)F)cc2c1-c1cc(Cl)ccc1O	335%	30%	–	–
CCN(CC)CC(O)CSc1c(O)nc2ccc(C(F)(F)F)cc2c1-c1cc(Cl)ccc1O (stereo not drawn)	192%	57%	–	–
O=C(CN1CCCC1)Nc1ccc(Sc2c(O)nc3ccc(C(F)(F)F)cc3c2-c2cc(Cl)ccc2O)cc1	291%	28%	–	–
O=C(CCN1CCCC1)Nc1ccc(Sc2c(O)nc3ccc(C(F)(F)F)cc3c2-c2cc(Cl)ccc2O)cc1	264%	35%	–	–
CCOC(=O)CN1CCN(C(=O)CSc2c(O)nc3ccc(C(F)(F)F)cc3c2-c2cc(Cl)ccc2O)CC1	281%	19%	–	–
CN(C)CCN(C)CC(=O)Nc1ccc(Sc2c(O)nc3ccc(C(F)(F)F)cc3c2-c2cc(Cl)ccc2O)cc1	231%	16%	–	–
CN(C)CCN(C)CCC(=O)Nc1ccc(Sc2c(O)nc3ccc(C(F)(F)F)cc3c2-c2cc(Cl)ccc2O)cc1	489%	29%	–	–
CC1CCCN(CCCC(=O)CSc2c(O)nc3ccc(C(F)(F)F)cc3c2-c2cc(Cl)ccc2O)C1 (stereo not drawn)	271%	–	–	–
CN1CCN(CCC(=O)CSc2c(O)nc3ccc(C(F)(F)F)cc3c2-c2cc(Cl)ccc2O)CC1	550%	–	–	–
O=S(=O)(Nc1ccc(Sc2c(O)nc3ccc(C(F)(F)F)cc3c2-c2cc(Cl)ccc2O)cc1)C(F)(F)F	277%	32%	–	–
CN(C)S(=O)(=O)Nc1ccc(Sc2c(O)nc3ccc(C(F)(F)F)cc3c2-c2cc(Cl)ccc2O)cc1	–	–	–	222%

SMILES	Activity [1]	Relaxation [2]	Activity [3]	Activity [4]
CN1CCC(N(C)CCCC(=O)CSc2c(O)nc3ccc(C(F)(F)F)cc3c2-c2cc(Cl)ccc2O)C1 (stereo not drawn)	226%	–	–	–
COc1ccc(Cl)cc1-c1c(SCC(O)CN2CCN(C)CC2)c(O)nc2ccc(C(F)(F)F)cc12 (stereo not drawn)	163%	–	–	–
CN(C)CCCN(C)CCC(=O)CSc1c(O)nc2ccc(C(F)(F)F)cc2c1-c1cc(Cl)ccc1O	178%	–	–	–
COc1ccc(Cl)cc1-c1c(Sc2ccc(NS(=O)(=O)N(C)C)cc2)c(O)nc2ccc(C(F)(F)F)cc12	–	–	–	114%
Oc1ccc(Cl)cc1-c1c(SCC(O)CN2CCSCC2)c(O)nc2ccc(C(F)(F)F)cc12 (stereo not drawn)	319%	48%	–	–
CCCS(=O)(=O)Nc1ccc(Sc2c(O)nc3ccc(C(F)(F)F)cc3c2-c2cc(Cl)ccc2OC)cc1	–	–	–	95%
O=C(CCN1CCC(O)CC1)CSc1c(O)nc2ccc(C(F)(F)F)cc2c1-c1cc(Cl)ccc1O	235%	–	–	–
O=C(CSc1c(O)nc2ccc(C(F)(F)F)cc2c1-c1cc(Cl)ccc1O)N1CCN(CCO)CC1	151%	22%	–	–
COc1ccc(Cl)cc1-c1c(SCC(O)CN2CCSCC2)c(O)nc2ccc(C(F)(F)F)cc12 (stereo not drawn)	97%	–	–	–
O=C(CCN1CCN(CCO)CC1)CSc1c(O)nc2ccc(C(F)(F)F)cc2c1-c1cc(Cl)ccc1O	241%	–	–	–
COc1ccc(Cl)cc1-c1c(Sc2ccc(NS(=O)(=O)C(F)(F)F)cc2)c(O)nc2ccc(C(F)(F)F)cc12	235%	21%	–	–
CN(C)CCCN(C)CC(O)CSc1c(O)nc2ccc(C(F)(F)F)cc2c1-c1cc(Cl)ccc1O (stereo not drawn)	214%	–	–	–
CCCS(=O)(=O)Nc1ccc(Sc2c(O)nc3ccc(C(F)(F)F)cc3c2-c2cc(Cl)ccc2O)cc1	–	–	–	255%
O=C(CCCN1CCC(N2CCCCC2)CC1)CSc1c(O)nc2ccc(C(F)(F)F)cc2c1-c1cc(Cl)ccc1O	298%	–	–	–
NC(=O)C1CCN(C(=O)CSc2c(O)nc3ccc(C(F)(F)F)cc3c2-c2cc(Cl)ccc2O)CC1	203%	67%	–	–
OCCN1CCN(CC(O)CSc2c(O)nc3ccc(C(F)(F)F)cc3c2-c2cc(Cl)ccc2O)CC1 (stereo not drawn)	287%	44%	–	–
COc1ccc(Cl)cc1-c1c(SCC(O)CN2CCC(O)CC2)c(O)nc2ccc(C(F)(F)F)cc12 (stereo not drawn)	125%	–	–	–
COc1ccc(Cl)cc1-c1c(SCC(O)CN2CCC(C)CC2)c(O)nc2ccc(C(F)(F)F)cc12 (stereo not drawn)	115%	–	–	–
Oc1ccc(Cl)cc1-c1c(SCC(O)CN2CCCC2)c(O)nc2ccc(C(F)(F)F)cc12 (stereo not drawn)	192%	–	–	–
